The values that follow come from patent publication US12667572B2, “Tricyclic compounds useful in the treatment of cancer, autoimmune and inflammatory disorders” (SCHRÖDINGER, INC., priority 2021, dated 2026).

Molecules are shown by their SMILES.

A word on the IC50: it is the concentration that gives 50% inhibition.

Test [1] has as its target T1, full-length MALT1 protein His-MALT1(1-824) (Homo sapiens, UniProt Q9UDY8).
T1 construct: full-length MALT1 protein His-MALT1(1-824); His (N); made in house; host or cells: baculovirus-infected insect cells
T1 sequence (Q9UDY8 1-824): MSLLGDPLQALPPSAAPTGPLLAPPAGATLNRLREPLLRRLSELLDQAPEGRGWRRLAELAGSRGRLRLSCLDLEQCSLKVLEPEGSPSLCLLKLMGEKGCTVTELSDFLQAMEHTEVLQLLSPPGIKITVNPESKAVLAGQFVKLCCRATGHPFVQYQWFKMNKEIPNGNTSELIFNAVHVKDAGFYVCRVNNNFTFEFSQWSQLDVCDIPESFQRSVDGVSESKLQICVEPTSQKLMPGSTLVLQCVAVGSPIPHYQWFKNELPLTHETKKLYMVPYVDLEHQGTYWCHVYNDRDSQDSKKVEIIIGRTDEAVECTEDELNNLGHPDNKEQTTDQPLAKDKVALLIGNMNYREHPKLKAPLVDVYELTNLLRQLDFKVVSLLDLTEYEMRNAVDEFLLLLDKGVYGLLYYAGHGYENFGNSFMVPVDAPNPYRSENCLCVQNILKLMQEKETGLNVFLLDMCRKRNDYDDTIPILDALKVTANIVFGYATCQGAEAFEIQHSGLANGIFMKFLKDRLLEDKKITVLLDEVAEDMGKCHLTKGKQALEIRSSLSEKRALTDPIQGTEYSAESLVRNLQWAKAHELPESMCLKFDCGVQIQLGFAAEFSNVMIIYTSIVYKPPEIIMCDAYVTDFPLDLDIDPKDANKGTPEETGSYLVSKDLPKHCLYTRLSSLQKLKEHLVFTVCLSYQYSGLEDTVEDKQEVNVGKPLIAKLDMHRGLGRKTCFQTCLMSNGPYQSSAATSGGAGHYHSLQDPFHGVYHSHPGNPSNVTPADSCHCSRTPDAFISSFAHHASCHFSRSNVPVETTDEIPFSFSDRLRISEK
The test is described as follows: MALT1 protease assay, Assay 2 (1 nM MALT1, Ac-LRSR-AMC substrate). As to conditions: 1 nM MALT1, 50 μM Ac-LRSR-AMC, 2 h pre-incubation, 8 hr incubation at RT. Format: biochemical. The procedure, abridged:
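Compounds (0.1% DMSO final) sat 2 h at RT with insect-cell-expressed His-MALT1(1-824), in 50 mM Tris pH 7.5, 600 mM sodium citrate, 1 mM DTT, 1 mM EDTA, 0.05% BSA. Cleavage of 50 μM Ac-LRSR-AMC (Km ~100 μM) ran 8 h at RT, read as AMC fluorescence. IC50 and Hill coefficient fitted to % remaining activity.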

Test [2] concerns IL10 secretion in OCI-LY10 cells. The test is described as follows: Human IL10 secretion assay, Assay 2 (MSD). Format: cell-based. As to conditions: Homo sapiens, 24 h incubation, Meso Scale Discovery, read-out: IL-10 Secretion IC50 [nM] Assay 2. As to the method: IL10 is one of the cytokines that are regulated via activation of NF-kB signaling. For example, in ABC-DLBCL cell lines, the activated NF-kB signaling leads to increased IL10 secretion. Inhibition of NF-kB signaling has been shown leading to decreased IL10 secretion.
Assay 2: OCI-LY10 cells were seeded in IMEM supplemented with 20% fetal bovine serum at 4.8×10^5 cells per 160 μL per well in 96-well V-bottom cell culture plates (corning, 3894), treated with 120 nL of 3-fold serial compound dilutions, starting at 4 mM. The final vehicle concentration was 0.075% DMSO in all wells. After a 24 h incubation, human IL-10 precoated plates (Meso Scale Discovery) were washed 3 times with PBST, and 50 μL culture medium was aspirated into the MSD plate and incubated at 4° C. overnight. The supernatant was then discarded, and the wells were washed 3 times with PB ST. SULFO-TAG Anti-human IL-10 Antibody (50×) was diluted 50-fold according to the Meso Scale Protocol, then 25 μL of SULFO-TAG Anti-human IL-10 Antibody (1×) was added. After 2 h of incubation at RT, the supernatant was discarded, and the well was washed 3 times with PBST. 2×read buffer was added and the signal was read on an MSD Sector S600. The effect of a particular compound on IL10 secretion is shown relative to the effect of DMSO; set as 100%. IC50 values (nM) were determined using 4-parametric curve-fitting.

Regarding `CC1(C)CC(C(=O)Nc2cnc(OC3CC3)c(Cl)c2)c2cnc3cc(Cl)nn3c21` (single isomer, unassigned) [Example 75, 2-chloro-N-(5-chloro-6-cyclopropoxypyridin-3-yl)-8,8-dimethyl-7,8-dihydro-6H-cyclopenta[e]pyrazolo[1,5-a]pyrimidine-6-carboxamide], the IC50 in test [1] fell in the range of 10 to 100 nM; in test [2] it was 100 to 1000 nM.

`CN(C(=O)c1ncc(NC(=O)[C@H]2CC(C)(C)c3c2cnc2cc(Cl)nn32)cc1C(F)F)C1CC1` (single isomer, unassigned) [Example 73, 2-chloro-N-(6-(cyclopropyl(methyl)carbamoyl)-5-(difluoromethyl)pyridin-3-yl)-8,8-dimethyl-7,8-dihydro-6H-cyclopenta[e]pyrazolo[1,5-a]pyrimidine-6-carboxamide]: the IC50 in test [1] is less than 10 nM; in test [2], 10 to 100 nM.

Turning to `O=C(Nc1cnc(-n2nccn2)c(Cl)c1)[C@H]1CC2(CCC2)c2c1cnc1cc(F)nn21` (single isomer, unassigned) [Example 108, N-(5-chloro-6-(2H-1,2,3-triazol-2-yl)pyridin-3-yl)-2′-fluoro-6′,7′-dihydrospiro[cyclobutane-1,8′-cyclopenta[e]pyrazolo[1,5-a]pyrimidine]-6′-carboxamide], the IC50 is less than 10 nM in test [1] and 100 to 1000 nM in test [2].

For the molecule `CC1(C)CC(C(=O)Nc2cnc(-n3nccn3)c(Cl)c2)c2cnc3c(F)c(F)nn3c21` (single isomer, unassigned) [Example 122, N-(5-chloro-6-(2H-1,2,3-triazol-2-yl)pyridin-3-yl)-2,3-difluoro-8,8-dimethyl-7,8-dihydro-6H-cyclopenta[e]pyrazolo[1,5-a]pyrimidine-6-carboxamide], the figures for the IC50 in test [1] and in test [2] were less than 10 nM and 100 to 1000 nM, respectively.

For the molecule `CC1(C)CC(C(=O)Nc2cnc(-n3nccn3)c(C#N)c2)c2cnc3cc(F)nn3c21` (single isomer, unassigned) [Example 89, N-(5-cyano-6-(2H-1,2,3-triazol-2-yl)pyridin-3-yl)-2-fluoro-8,8-dimethyl-7,8-dihydro-6H-cyclopenta[e]pyrazolo[1,5-a]pyrimidine-6-carboxamide], the IC50 was less than 10 nM in test [1] and 100 to 1000 nM in test [2].

On to `C[C@H](O)c1cnn(-c2ncc(NC(=O)[C@H]3CC(C)(C)c4c3cnc3cc(Cl)nn43)cc2Cl)n1` (single isomer, unassigned) [Example 49, 2-chloro-N-(5-chloro-6-(4-(1-hydroxyethyl)-2H-1,2,3-triazol-2-yl)pyridin-3-yl)-8,8-dimethyl-7,8-dihydro-6H-cyclopenta[e]pyrazolo[1,5-a]pyrimidine-6-carboxamide], for which the figures for the IC50 in test [1] and in test [2] were less than 10 nM and 100 to 1000 nM, respectively.

For the molecule `CC1(C)CC(C(=O)Nc2cnc(-n3nccn3)c(C(F)(F)F)c2)c2cnn3cc(Cl)nc3c21` (single isomer, unassigned) [Example 193, N-(6-(2H-1,2,3-triazol-2-yl)-5-(trifluoromethyl)pyridin-3-yl)-2-chloro-9,9-dimethyl-8,9-dihydro-7H-cyclopenta[d]imidazo[1,2-b]pyridazine-7-carboxamide], the 50% inhibitory concentration (IC50) was less than 10 nM in test [1] and 10 to 100 nM in test [2].

As to `C[C@@H](O)c1cnn(-c2ncc(NC(=O)[C@H]3CC(C)(C)c4c3cnc3cc(Cl)nn43)cc2Cl)n1` (single isomer, unassigned) [Example 51, 2-chloro-N-(5-chloro-6-(4-(1-hydroxyethyl)-2H-1,2,3-triazol-2-yl)pyridin-3-yl)-8,8-dimethyl-7,8-dihydro-6H-cyclopenta[e]pyrazolo[1,5-a]pyrimidine-6-carboxamide], the values for the IC50 in test [1] and in test [2] were less than 10 nM and 100 to 1000 nM, respectively.

Take `CC1(C)CC(C(=O)Nc2cnc(-n3nccn3)c(C(F)F)c2)c2cnc3cc(Cl)nn3c21` (single isomer, unassigned) [Example 47, 2-chloro-N-(5-(difluoromethyl)-6-(2H-1,2,3-triazol-2-yl)pyridin-3-yl)-8,8-dimethyl-7,8-dihydro-6H-cyclopenta[e]pyrazolo[1,5-a]pyrimidine-6-carboxamide]: the IC50 is less than 10 nM in test [1] and 100 to 1000 nM in test [2].

Regarding `CC1(C)CC(C(=O)Nc2cnc(OC(F)F)c(Cl)c2)c2cnc3cc(Cl)nn3c21` (single isomer, unassigned) [Example 68, 2-chloro-N-(5-chloro-6-(difluoromethoxy)pyridin-3-yl)-8,8-dimethyl-7,8-dihydro-6H-cyclopenta[e]pyrazolo[1,5-a]pyrimidine-6-carboxamide], the IC50 in test [1] was less than 10 nM; in test [2], 100 to 1000 nM.

In the case of `N#Cc1cc(NC(=O)C2CC3(CCC3)c3c2cnc2cc(F)nn32)cnc1OC(F)F` (single isomer, unassigned) [Example 103, N-(5-cyano-6-(difluoromethoxy)pyridin-3-yl)-2′-fluoro-6′,7′-dihydrospiro[cyclobutane-1,8′-cyclopenta[e]pyrazolo[1,5-a]pyrimidine]-6′-carboxamide], the IC50 in test [1] is less than 10 nM; in test [2], 100 to 1000 nM.

`C[C@]1(C(F)(F)F)C[C@H](C(=O)Nc2cnc(-n3nccn3)c(C(F)F)c2)c2cnc3cc(Cl)nn3c21` (single isomer, unassigned) [Example 66, 2-chloro-N-(5-(difluoromethyl)-6-(2H-1,2,3-triazol-2-yl)pyridin-3-yl)-8-methyl-8-(trifluoromethyl)-7,8-dihydro-6H-cyclopenta[e]pyrazolo[1,5-a]pyrimidine-6-carboxamide]: the IC50 in test [1] lay within 10 to 100 nM; in test [2] it was 100 to 1000 nM.

`Cn1nnnc1-c1ncc(NC(=O)C2CC(C)(C)c3c2cnc2cc(Cl)nn32)cc1Cl` (single isomer, unassigned) [Example 145, 2-chloro-N-(5-chloro-6-(1-methyl-1H-tetrazol-5-yl)pyridin-3-yl)-8,8-dimethyl-7,8-dihydro-6H-cyclopenta[e]pyrazolo[1,5-a]pyrimidine-6-carboxamide]: the values for the IC50 in test [1] and in test [2] were less than 10 nM and 100 to 1000 nM, respectively.

In the case of `C[C@@]1(C(F)(F)F)C[C@H](C(=O)Nc2cnc(-n3nccn3)c(C(F)F)c2)c2cnc3cc(Cl)nn3c21` (single isomer, unassigned) [Example 64, 2-chloro-N-(5-(difluoromethyl)-6-(2H-1,2,3-triazol-2-yl)pyridin-3-yl)-8-methyl-8-(trifluoromethyl)-7,8-dihydro-6H-cyclopenta[e]pyrazolo[1,5-a]pyrimidine-6-carboxamide], the IC50 in test [1] was 10 to 100 nM; in test [2] it was 100 to 1000 nM.

With `CC1(C)C[C@H](C(=O)Nc2cnc(OC(F)F)c(Cl)c2)c2cnc3cc(F)nn3c21` (single isomer, unassigned) [Example 77, N-(5-chloro-6-(difluoromethoxy)pyridin-3-yl)-2-fluoro-8,8-dimethyl-7,8-dihydro-6H-cyclopenta[e]pyrazolo[1,5-a]pyrimidine-6-carboxamide], the IC50 is less than 10 nM in test [1] and 10 to 100 nM in test [2].

Turning to `CC1(C)CC(C(=O)Nc2cnc(OC3CC3)c(C#N)c2)c2cnc3cc(F)nn3c21` (single isomer, unassigned) [Example 81, N-(5-cyano-6-cyclopropoxypyridin-3-yl)-2-fluoro-8,8-dimethyl-7,8-dihydro-6H-cyclopenta[e]pyrazolo[1,5-a]pyrimidine-6-carboxamide], the half-inhibitory concentration (IC50) in test [1] is 10 to 100 nM; in test [2], 100 to 1000 nM.
